Calls of active or inactive are those of the source. The calls are words filed in the database; no cut-off is given here.

Among the data in ChEMBL document CHEMBL3621186, “Design, synthesis and antitumor activity of non-camptothecin topoisomerase I inhibitors” (Bioorg Med Chem Lett, 2015) are inhibition and IC50 values, retold here.

The subject of assay [1] is HepG2. As to the kind of experiment: Cytotoxicity against human HepG2 cells assessed as inhibition of cell proliferation at 10 uM by MTT assay relative to control. Type of assay: functional.
The subject of assay [2] is PC-3. As to the kind of experiment: Cytotoxicity against human PC3 cells assessed as inhibition of cell proliferation at 10 uM by MTT assay relative to control. Type of assay: functional.
Assay [3] has as its system U-87 MG. The assay is described as follows: Cytotoxicity against human U87MG cells assessed as inhibition of cell proliferation at 10 uM by MTT assay relative to control. The assay is classed as functional, U-87MG ATCC.
Assay [4] relates to HCT-116. The assay is described as follows: Cytotoxicity against human HCT116 cells assessed as inhibition of cell proliferation at 10 uM by MTT assay relative to control. The assay is classed as functional.
The test system of assay [5] is SK-OV-3. The assay is described as follows: Cytotoxicity against human SKOV3 cells assessed as inhibition of cell proliferation at 10 uM by MTT assay relative to control. Type of assay: functional.
Assay [6] relates to HepG2. The assay is described as follows: Cytotoxicity against human HepG2 cells assessed as inhibition of cell proliferation by MTT assay. Type of assay: functional, cell-based.
Assay [7] relates to HCT-116. As to the kind of experiment: Cytotoxicity against human HCT116 cells assessed as inhibition of cell proliferation by MTT assay. The assay is classed as functional, cell-based.
In assay [8] the test system is PC-3. The assay is described as follows: Cytotoxicity against human PC3 cells assessed as inhibition of cell proliferation by MTT assay. Type of assay: functional, cell-based.
The target in assay [9] is T1, DNA topoisomerase 1 (Homo sapiens) (UniProt P11387).
T1 sequence (whole entry): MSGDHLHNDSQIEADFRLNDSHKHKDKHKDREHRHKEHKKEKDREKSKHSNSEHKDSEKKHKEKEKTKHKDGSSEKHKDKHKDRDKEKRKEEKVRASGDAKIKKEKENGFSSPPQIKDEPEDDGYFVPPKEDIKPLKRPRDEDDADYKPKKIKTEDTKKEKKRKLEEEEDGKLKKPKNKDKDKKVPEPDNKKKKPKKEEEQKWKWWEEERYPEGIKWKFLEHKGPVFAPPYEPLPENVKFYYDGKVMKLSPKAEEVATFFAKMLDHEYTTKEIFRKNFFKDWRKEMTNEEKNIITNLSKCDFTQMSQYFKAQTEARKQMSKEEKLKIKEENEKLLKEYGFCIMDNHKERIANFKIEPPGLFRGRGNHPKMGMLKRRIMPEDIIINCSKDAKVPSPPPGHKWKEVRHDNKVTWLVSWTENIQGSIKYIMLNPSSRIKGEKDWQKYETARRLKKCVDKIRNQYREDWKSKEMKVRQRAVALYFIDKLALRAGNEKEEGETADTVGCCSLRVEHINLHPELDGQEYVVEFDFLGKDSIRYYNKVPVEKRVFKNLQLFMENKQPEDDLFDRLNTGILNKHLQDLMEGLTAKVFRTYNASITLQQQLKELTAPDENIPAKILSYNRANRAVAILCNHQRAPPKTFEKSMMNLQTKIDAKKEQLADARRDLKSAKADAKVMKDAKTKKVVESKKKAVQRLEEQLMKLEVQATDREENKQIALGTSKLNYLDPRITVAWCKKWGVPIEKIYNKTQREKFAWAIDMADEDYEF
As to the kind of experiment: Inhibition of recombinant human DNA topoisomerase-1 assessed as relaxation of supercoiled pBR322 DNA at 50 uM after 30 mins by agarose gel electrophoresis.

For assay [10], the system named is SK-OV-3. As to the kind of experiment: Cytotoxicity against human SKOV3 cells assessed as inhibition of cell proliferation by MTT assay. Type of assay: functional, cell-based.
Assay [11] relates to U-87 MG. As to the kind of experiment: Cytotoxicity against human U87MG cells assessed as inhibition of cell proliferation by MTT assay. The assay is classed as functional, cell-based, U-87MG ATCC.

Regarding `CN(C)CCCNC(=O)C1c2c(O)cccc2-n2c(=O)c3ccccc3c(=O)n21` (stereo not given), the inhibition at 10 µM in assay [1] was -8.92%; in assay [2] it was 11.1%; in assay [3], -4.7%; in assay [4] it was -4.5%; in [5] it was -4.01%.

On to `CCOC(=O)C1C2=C(CCCC2=O)n2c(=O)c3ccccc3c(=O)n21` (stereo not given), for which the inhibition at 10 µM in [1] was 12%; in assay [2] it was 11.1%; in [3], 1.5%; in assay [4], 3.5%; in assay [5], -4.89%.

Turning to `COc1ccc2nc3c(nc2c1)-c1ccccc1C3=O`, the inhibition at 10 µM was 6.56% in assay [1]; -1.15% in assay [2]; -7.74% in assay [3]; 16.9% in assay [4]; -7.19% in assay [5].

For the molecule `COc1ccc2nc3c(nc2c1)C(=O)c1ccccc1-3`, the inhibition at 10 µM in [1] is 14.7%; in assay [2], -4.44%; in [3], -14.4%; in [4] it was 8.68%; in assay [5], 8.07%.

As to `O=C(NCCO)C1c2c(O)cccc2-n2c(=O)c3ccccc3c(=O)n21` (stereo not given), the inhibition at 10 µM is -0.87% in assay [1]; 5% in assay [2]; -0.6% in assay [3]; -0.6% in assay [4]; -7.14% in [5].

Turning to `CCOC(=O)C1c2c(ccc(Br)c2O)-n2c(=O)c3ccccc3c(=O)n21` (stereo not given), the inhibition at 10 µM in assay [1] is 2.54%; in [2], 0.8%; in assay [3] it was 4.1%; in assay [4] it was 3.3%; in [5], -3.43%.

Consider `CN(C)CCCNC(=O)C1c2c(ccc(Br)c2O)-n2c(=O)c3ccccc3c(=O)n21` (stereo not given), for which the inhibition at 10 µM was -7.99% in assay [1]; 6.4% in [2]; -2.5% in assay [3]; -5.7% in [4]; -4.1% in [5].

Take `O=C1c2ccccc2-c2nc3cc4ccccc4cc3nc21`: the inhibition at 10 µM in [1] was 2.82%; in assay [2] it was 11.8%; in assay [3], -11.5%; in assay [4] it was 7.32%; in assay [5] it was -8.16%.

For `O=C1c2ccccc2-c2nc3cc(C(F)(F)F)ccc3nc21`, the inhibition at 10 µM in assay [1] is 42.9%; in assay [2], -1.15%; in [3] it was -7.67%; in [4], 12.2%; in assay [5], -0.82%.

With `O=C1c2ccccc2-c2nc3ccccc3nc21`, the inhibition at 10 µM in assay [1] is 53.2%; in assay [2] it was -8.39%; in [3], -14.5%; in assay [4], -1.83%; in assay [5] it was 10.1%.

On to `O=C1c2ccccc2-c2nc3cccnc3nc21`, for which the inhibition at 10 µM came to 55.4% in assay [1]; 52.7% in [2]; 20.8% in assay [3]; 71.9% in assay [4]; 13.2% in assay [5]. Moreover, the figures for the IC50 in [6], in [7] and in assay [8] were 33.8 µM, 44.6 µM and 4.38 µM, respectively.

For the molecule `CCOC(=O)C1c2c(O)cccc2-n2c(=O)c3ccccc3c(=O)n21` (stereo not given), the inhibition at 10 µM in assay [1] is 11.2%; in assay [2], 4.9%; in [3] it was 1.9%; in assay [4], 0.4%; in [5] it was -3.97%.

With `O=C1c2ccccc2-c2nc3cc(F)ccc3nc21`, the inhibition at 10 µM in [1] was 50.5%; in [2], 2.65%; in assay [3], -13.2%; in assay [4], 22.7%; in assay [5], 9.6%.

For the molecule `O=C1c2ccccc2-c2nc3ncccc3nc21`, the inhibition at 10 µM was 15.2% in assay [1]; 36.2% in assay [2]; -23.3% in assay [3]; 1.49% in [4]; 2.89% in [5].

With `CN(C)CCNC(=O)C1c2c(ccc(Br)c2O)-n2c(=O)c3ccccc3c(=O)n21` (stereo not given), the inhibition at 10 µM in [1] is 3.89%; in assay [2] it was 14.3%; in assay [3], 0.1%; in assay [4], -5.8%; in [5] it was -6.16%.

As to `CN(C)CCNC(=O)C1c2c(O)cccc2-n2c(=O)c3ccccc3c(=O)n21` (stereo not given), the inhibition at 10 µM in assay [1] was -2.82%; in assay [2], 4%; in [3], 1.1%; in [4] it was -4.2%; in assay [5], -1.46%.

As to `Cc1ccc2nc3c(nc2c1)C(=O)c1ccccc1-3`, the inhibition at 10 µM in assay [1] was 6.44%; in assay [2], -8.92%; in assay [3], -13.9%; in [4], 6.32%; in assay [5], 11.2%.

`COc1ccc2[nH]c3c(c2c1)C(=O)c1ccccc1C3=O`: the inhibition at 10 µM in [1] came out at 26.6%; in [2], 8.56%; in assay [3], 49%; in [4], 76.2%; in [5] it was 57.6%.

As for `CN(C)CCCn1c2c(c3c4ccccc4c(O)cc31)C(=O)c1ccccc1C2=O`, the inhibition at 10 µM in [1] came out at 88%; in [2], 59.6%; in [3] it was 86%; in assay [4], 91.2%; in assay [5], 77.4%. Besides, the IC50 in assay [6] worked out at 1.97 µM; in [7], 0.996 µM; in assay [10], 0.783 µM; in [11] it was 0.325 µM; in assay [8] it was 0.612 µM. The inhibition result in [9] is “Active”.

On to `CN(C)CCn1c2c(c3c4ccccc4c(O)cc31)C(=O)c1ccccc1C2=O`, for which the inhibition at 10 µM in [1] stood at 88.2%; in assay [2] it was 66.5%; in assay [3], 78.8%; in assay [4], 92%; in assay [5] it was 82.4%. Also, the IC50 in assay [6] was 0.844 µM; in [7], 0.706 µM; in [10] it was 1.01 µM; in [11], 0.169 µM; in [8], 0.389 µM. Further, the inhibition result in assay [9] is “Active”.

As for `O=C(NCCO)C1c2c(ccc(Br)c2O)-n2c(=O)c3ccccc3c(=O)n21` (stereo not given), the inhibition at 10 µM in [1] was 15.1%; in [2], 6.5%; in assay [3], 0.4%; in assay [4], 3.7%; in [5], -4.34%.

With `O=C(NCCCO)C1c2c(O)cccc2-n2c(=O)c3ccccc3c(=O)n21` (stereo not given), the inhibition at 10 µM in assay [1] was -3.15%; in assay [2], 7.6%; in [3], 2.4%; in assay [4], -3.8%; in assay [5] it was -5.15%.

As for `O=C(NCCCO)C1c2c(ccc(Br)c2O)-n2c(=O)c3ccccc3c(=O)n21` (stereo not given), the inhibition at 10 µM in assay [1] was -8.92%; in assay [2] it was 5.3%; in [3], -4.7%; in assay [4], 5.4%; in [5], -4.25%.

For the molecule `O=C1c2ccccc2-c2nc3ccc(C(F)(F)F)cc3nc21`, the inhibition at 10 µM in assay [1] was 43.8%; in assay [2], 15.9%; in assay [3] it was -15.6%; in [4], 17.2%; in [5], 14.2%.
